# Reference: patent US10052331B2, “3-(3H-imidazo[4,5-C]pyridin-2-yl)-1H-pyrazolo[3,4-C]pyridine and therapeutic uses thereof” (Samumed, LLC, priority 2014, dated 2018)
# Experiments:
# Type in all cases: cell-based
# [1] = test system: Wnt activity (Wnt-responsive Sp5 promoter-luciferase reporter in SW480 cells); assay: Wnt activity screening assay: Sp5-Luc reporter gene in SW480 colon carcinoma cells; conditions: Homo sapiens
# Procedure, shortened: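 IC50 values come from variable-slope four-parameter fits of luciferase signal normalized to DMSO wells. Stable Sp5-Luc reporter SW480 colon carcinoma cells were exposed to compounds in a 3-fold dilution series (source plates from 10 mM stock) for forty-two hours at 37 °C.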
# [2] = test system: primary human mesenchymal stem cells (hMSCs); assay: Chondrogenesis induction in primary human mesenchymal stem cells (nodule imaging, Rhodamine B/Nile Red); conditions: 144 h, 6 days; for EC (100% TGF-beta3 activity): concentration required to induce chondrogenesis equivalent to TGF-β3 positive control, read-out: Conc (nM) of 100% TGF-β3 activity; for Emax: relative to TGF-β3 (10 ng/mL) positive control, read-out: Max. Activity as % TGF-β3 activity
# Protocol: The above synthesized compounds were screened using primary human mesenchymal stem cells (hMSCs) to determine their ability to induce chondrogenesis (process by which cartilage is developed).
# Primary human mesenchymal stem cells (hMSCs) were purchased from Lonza (Walkersville, Md.) and expanded in Mesenchymal Stem Cell Growth Media (Lonza). Cells between passage 3 and 6 were used for the experiments.
# Each compound was dissolved in DMSO as a 10 mM stock and used to prepare compound source plates. Serial dilution (1:3, 6-point dose-response curves from 2700 nM to 10 nM) and compound transfer was performed using the ECHO 550 (Labcyte, Sunnyvale, Calif.) into 96-well clear bottom assay plates (Greiner Bio-One) with appropriate DMSO backfill for a final DMSO concentration of 0.03%. hMSCs were plated at 20,000 cells/well in 250 μL/well Incomplete Chondrogenic Induction Medium (Lonza; DMEM, dexamethasone, ascorbate, insulin-transferrin-selenium [ITS supplement], gentamycin-amphotericin [GA-1000], sodium pyruvate, proline and L-glutamine). TGF-β3 (10 ng/mL) was used as a positive control for differentiation while negative control wells were treated with 75 nL DMSO for normalization and calculating EC50 values. Cells were incubated at 37° C. and 5% CO2 for 6 days. To image chondrogenic nodules, the cells were fixed using 4% formaldehyde (Electron Microscopy Sciences), and stained with 2 μg/mL Rhodamine B (Sigma-Aldrich) and 20 μM Nile Red (Sigma-Aldrich) [Johnson K., et. al, A Stem Cell-Based Approach to Cartilage Repair, Science, (2012), 336(6082), 717-721]. The nodules imaged (4 images per well at 4× magnification) by excitation at 531 nm and emission at 625 nm and quantified using the CellInsight CX5 (Thermo Scientific). Number of nodules in each well was normalized to the average of 3 DMSO treated wells on the same plate using Excel (Microsoft Inc.). The normalized averages (fold change over DMSO) of 3 replicate wells for each compound concentration were calculated. Due to solubility limitations of some of the compounds, curve fitting was incomplete leading to inaccurate EC50 determinations.
# Using TGF-03 as a positive control, the concentration of test compounds required to induce equivalent levels of chondrogenesis is reported. In addition, the maximum activity of each compound and the respective dose that each compound reached maximum chondrogenesis activity is reported.
# [3] = test system: primary human fibroblasts derived from IPF patients (LL29 cells); assay: Inhibition of fibrotic process: αSMA staining in TGF-β1-treated primary human fibroblasts from IPF patients (LL29 cells); conditions: Fibroblast, 96 h, LL29 cells treated with TGF-β1 (20 ng/mL), 4 days, 11-point dose-response from 10 μM to 1.87 nM, read-out: Inhibition of fibrosis EC50
# Procedure, shortened: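 LL29 IPF lung fibroblasts in F12 with 1% FBS, compound (11-point, 10 μM to 1.87 nM, 0.1% DMSO) plus TGF-β1 20 ng/mL for 4 days at 37° C. αSMA-positive % of SYTOX-negative cells by immunofluorescence imaging, normalized to TGF-β1 wells; EC50 from non-linear regression of triplicates.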
# ARPE-19 cells = assay: Transdifferentiation of ARPE-19 cells into eye neuronal cells [photoreceptors] (PAX6 staining); conditions: Homo sapiens, 40 hours, normalized to DMSO
# Protocol: The above synthesized compounds were screened using ARPE-19 cells [a spontaneously arising retinal pigment epithelia (RPE) cell line] to determine their ability to transdifferentiate ARPE-19 into eye neuronal cells [photoreceptors].
# ARPE-19 cells are cultured in standard culture medium containing Dulbecco's Modified Eagle's Medium and Ham's F12 Nutrient Mixture (DMEM/F12) mix (1:1)+GlutaMax with 1% penicillin-Streptomycin and 10% FBS (Fetal Bovine Serum). Cells are incubated at 37° C. with 5% CO2. Cells are trypsinized and plated onto 384-well pre-spotted plate at a density of 3000 cells/well in 50 uL of media. Plating media: DMEM/F12 (1:1)+3% charcoal filtered-FBS+GlutaMax+1% pen/Strep. Cells are incubated at 37° C. with 5% CO2. At 40 hours, cells were fixed for 15 min with 10% Buffered Formalin. Cells were then washed 3 times with PBS for 5 min each, permeablize using 0.3% Triton X-100 in 1×PBS for 30 min, block for 1 hr with 2% BSA in 1×PBS with 0.1% Triton X-100. The primary antibody (1:100 PAX6 Santa Cruz Biotech; sc-81649) was diluted and 10 μL/well was added to the cells. The cells were incubated overnight at 4° C. […] Readings were normalized to DMSO only treated cells, and normalized activities were utilized for EC50 calculations using the dose-response log (activator) vs. response-variable slope (four parameters) nonlinear regression feature available in GraphPad Prism 5.0 or 6.0.
SMILES,IC50 [1] [µM],EC (100% TGF-beta3 activity) [2] [nM],Emax [2] [%],EC50 [3] [µM],EC50 (ARPE-19 cells) [µM]
"Cc1ccc(-c2cncc3[nH]c(-c4n[nH]c5cnc(-c6cncc(N)c6)cc45)nc23)s1 [Compound 341, 5-(3-(7-(5-Methylthiophen-2-yl)-3H-imidazo[4,5-c]pyridin-2-yl)-1H-pyrazolo[3,4-c]pyridin-5-yl)pyridin-3-amine]",0.0058,162,100,≤ 0.009,
"Cc1ccc(-c2cncc3[nH]c(-c4n[nH]c5cnc(-c6cncc(NC(=O)C7CCC7)c6)cc45)nc23)s1 [Compound 358, N-(5-(3-(7-(5-Methylthiophen-2-yl)-3H-imidazo[4,5-c]pyridin-2-yl)-1H-pyrazolo[3,4-c]pyridin-5-yl)pyridin-3-yl)cyclobutanecarboxamide]",0.0067,231,100,0.019,
"CCCC(=O)Nc1cncc(-c2cc3c(-c4nc5c(-c6cc(F)cc(CNS(C)(=O)=O)c6)cncc5[nH]4)n[nH]c3cn2)c1 [Compound 407, N-(5-(3-(7-(3-Fluoro-5-(methylsulfonamidomethyl)phenyl)-3H-imidazo[4,5-c]pyridin-2-yl)-1H-pyrazolo[3,4-c]pyridin-5-yl)pyridin-3-yl)butyramide]",0.0239,79.2,30,> 10,
"Cn1cc(-c2cc3c(-c4nc5c(-c6cccc(F)c6)cncc5[nH]4)n[nH]c3cn2)cn1 [Compound 888, 3-(7-(3-Fluorophenyl)-3H-imidazo[4,5-c]pyridin-2-yl)-5-(1-methyl-1H-pyrazol-4-yl)-1H-pyrazolo[3,4-c]pyridine]",0.07,71,100,≤ 0.009,
"NC1CN(c2cncc(-c3cc4c(-c5nc6c(-c7cccc(F)c7)cncc6[nH]5)n[nH]c4cn3)n2)C1 [Compound 890, 1-(6-(3-(7-(3-Fluorophenyl)-3H-imidazo[4,5-c]pyridin-2-yl)-1H-pyrazolo[3,4-c]pyridin-5-yl)pyrazin-2-yl)azetidin-3-amine]",0.103,,,0.088,0.009
"CN(C)CCOc1cncc(-c2cc3c(-c4nc5c(-c6cccc(F)c6)cncc5[nH]4)n[nH]c3cn2)c1 [Compound 895, 2-((5-(3-(7-(3-Fluorophenyl)-3H-imidazo[4,5-c]pyridin-2-yl)-1H-pyrazolo[3,4-c]pyridin-5-yl)pyridin-3-yl)oxy)-N,N-dimethylethan-1-amine]",0.437,,,≥ 9.99,0.162
"COc1cncc(-c2cc3c(-c4nc5c(-c6cccc(F)c6)cncc5[nH]4)n[nH]c3cn2)c1 [Compound 896, 3-(7-(3-Fluorophenyl)-3H-imidazo[4,5-c]pyridin-2-yl)-5-(5-methoxypyridin-3-yl)-1H-pyrazolo[3,4-c]pyridine]",0.031,140,300,≤ 0.009,
